From publication PMC3639963, “A New Class of Small Molecule Inhibitor of BMP Signaling” (PLoS ONE, 2013)
Where “and” joins values, the source holds several entries; their conditions need not be identical. Identical values can stand only once.

Key:
Experiment in all cases: Nanosyn kinase profiling
Format in all cases: biochemical
PRKD2 = biological target: T1, PRKD2 (Homo sapiens, UniProt Q9BZL6); settings: read-out: Percentage inhibition; for inhibition at 0.1 µM: 0.1 µM inhibitor; for inhibition at 1 µM: 1 µM inhibitor
T1 construct: purchased Nanosyn (enzymatic panel); SGC in-house recombinant human kinases (DSF panel); Invitrogen (ALK1-6)
T1 sequence (Q9BZL6 1-878): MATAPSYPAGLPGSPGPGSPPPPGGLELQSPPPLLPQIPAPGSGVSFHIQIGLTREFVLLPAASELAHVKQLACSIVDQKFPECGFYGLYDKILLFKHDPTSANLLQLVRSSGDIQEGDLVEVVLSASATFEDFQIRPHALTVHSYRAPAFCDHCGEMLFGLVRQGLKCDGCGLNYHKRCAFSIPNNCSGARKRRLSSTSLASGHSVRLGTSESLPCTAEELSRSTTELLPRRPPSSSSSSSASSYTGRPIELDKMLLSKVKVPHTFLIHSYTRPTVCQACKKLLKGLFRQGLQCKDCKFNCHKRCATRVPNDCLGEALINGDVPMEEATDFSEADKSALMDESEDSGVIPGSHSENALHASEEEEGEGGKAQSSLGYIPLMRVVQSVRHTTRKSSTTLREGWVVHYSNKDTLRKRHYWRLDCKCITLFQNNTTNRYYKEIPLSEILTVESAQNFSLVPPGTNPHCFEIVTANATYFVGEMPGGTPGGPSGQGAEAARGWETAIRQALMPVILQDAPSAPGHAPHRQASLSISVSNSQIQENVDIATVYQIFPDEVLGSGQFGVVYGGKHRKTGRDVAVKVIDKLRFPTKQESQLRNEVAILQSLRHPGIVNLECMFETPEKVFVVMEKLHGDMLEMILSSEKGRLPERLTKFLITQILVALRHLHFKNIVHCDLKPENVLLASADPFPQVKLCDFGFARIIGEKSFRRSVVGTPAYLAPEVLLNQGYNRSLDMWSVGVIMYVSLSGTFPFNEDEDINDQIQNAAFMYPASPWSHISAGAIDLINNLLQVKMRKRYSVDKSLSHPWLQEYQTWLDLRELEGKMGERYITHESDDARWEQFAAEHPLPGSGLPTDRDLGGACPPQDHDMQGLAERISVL
In short: (§1)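 Percent inhibition of each kinase was measured with the inhibitor at 0.1 µM and at 1 µM, as part of a 200-kinase human selectivity panel.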

PAK2 = biological target: T2, PAK2 (Homo sapiens, UniProt Q13177); settings: read-out: Percentage inhibition; for inhibition at 0.1 µM: 0.1 µM inhibitor; for inhibition at 1 µM: 1 µM inhibitor
T2 construct: purchased Nanosyn (enzymatic panel); SGC in-house recombinant human kinases (DSF panel); Invitrogen (ALK1-6)
In short: as §1

PRAK = biological target: T3, PRAK (Homo sapiens, UniProt Q8IW41); settings: read-out: Percentage inhibition; for inhibition at 0.1 µM: 0.1 µM inhibitor; for inhibition at 1 µM: 1 µM inhibitor
T3 construct: purchased Nanosyn (enzymatic panel); SGC in-house recombinant human kinases (DSF panel); Invitrogen (ALK1-6)
T3 sequence (Q8IW41 1-473): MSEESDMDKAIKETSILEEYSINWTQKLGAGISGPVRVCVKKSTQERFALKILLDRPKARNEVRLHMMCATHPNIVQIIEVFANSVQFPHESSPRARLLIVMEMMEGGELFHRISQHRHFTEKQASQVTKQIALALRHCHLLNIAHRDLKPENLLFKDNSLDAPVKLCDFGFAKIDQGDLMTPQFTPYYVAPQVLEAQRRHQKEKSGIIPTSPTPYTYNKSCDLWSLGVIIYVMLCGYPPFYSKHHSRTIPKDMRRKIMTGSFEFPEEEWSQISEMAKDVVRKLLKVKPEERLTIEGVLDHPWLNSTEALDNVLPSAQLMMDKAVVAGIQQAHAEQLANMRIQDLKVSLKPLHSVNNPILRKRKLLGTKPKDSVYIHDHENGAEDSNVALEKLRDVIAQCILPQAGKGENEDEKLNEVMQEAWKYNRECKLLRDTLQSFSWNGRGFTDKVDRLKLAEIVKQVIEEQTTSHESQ
In short: as §1

ABL1 = biological target: T4, ABL1 (Homo sapiens, UniProt P00519); settings: for Percentage inhibition: 0.1 µM; for inhibition at 1 µM: 1 µM inhibitor
T4 construct: purchased Nanosyn (enzymatic panel); SGC in-house recombinant human kinases (DSF panel); Invitrogen (ALK1-6)
In short: as §1

NEK9 = biological target: T5, NEK9 (Homo sapiens, UniProt Q8TD19); settings: read-out: Percentage inhibition; for inhibition at 0.1 µM: 0.1 µM inhibitor; for inhibition at 1 µM: 1 µM inhibitor
T5 construct: purchased Nanosyn (enzymatic panel); SGC in-house recombinant human kinases (DSF panel); Invitrogen (ALK1-6)
T5 sequence (Q8TD19 1-979): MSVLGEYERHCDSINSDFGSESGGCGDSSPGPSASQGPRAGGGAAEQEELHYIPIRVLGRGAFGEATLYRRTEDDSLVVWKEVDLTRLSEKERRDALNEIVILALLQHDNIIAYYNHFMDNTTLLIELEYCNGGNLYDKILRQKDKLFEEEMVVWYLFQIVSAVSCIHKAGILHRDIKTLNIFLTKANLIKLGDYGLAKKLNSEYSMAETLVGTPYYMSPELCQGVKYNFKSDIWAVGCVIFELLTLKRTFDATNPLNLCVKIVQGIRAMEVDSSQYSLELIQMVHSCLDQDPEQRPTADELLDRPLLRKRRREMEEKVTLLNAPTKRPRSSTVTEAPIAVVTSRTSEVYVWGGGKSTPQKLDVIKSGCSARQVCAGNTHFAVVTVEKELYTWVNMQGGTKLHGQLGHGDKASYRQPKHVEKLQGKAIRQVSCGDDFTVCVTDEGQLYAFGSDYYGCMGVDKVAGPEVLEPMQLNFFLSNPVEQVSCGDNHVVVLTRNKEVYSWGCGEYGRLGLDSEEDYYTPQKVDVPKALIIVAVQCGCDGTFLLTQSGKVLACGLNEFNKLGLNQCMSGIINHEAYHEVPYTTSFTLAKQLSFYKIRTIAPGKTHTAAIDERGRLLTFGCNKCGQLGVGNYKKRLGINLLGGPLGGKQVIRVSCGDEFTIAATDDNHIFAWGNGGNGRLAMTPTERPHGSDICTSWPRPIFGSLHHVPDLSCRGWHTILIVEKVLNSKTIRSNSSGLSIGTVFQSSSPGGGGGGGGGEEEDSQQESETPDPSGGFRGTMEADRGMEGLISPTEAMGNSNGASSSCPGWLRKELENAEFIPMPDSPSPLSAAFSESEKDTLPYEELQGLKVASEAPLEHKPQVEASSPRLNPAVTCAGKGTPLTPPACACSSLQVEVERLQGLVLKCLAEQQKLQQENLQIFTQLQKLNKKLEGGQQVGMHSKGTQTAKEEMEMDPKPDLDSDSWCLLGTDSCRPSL
In short: as §1

PKCβ1 = biological target: T6, PKCβ1 (Homo sapiens, UniProt P05771); settings: read-out: Percentage inhibition; for inhibition at 0.1 µM: 0.1 µM inhibitor; for inhibition at 1 µM: 1 µM inhibitor
T6 construct: purchased Nanosyn (enzymatic panel); SGC in-house recombinant human kinases (DSF panel); Invitrogen (ALK1-6)
In short: as §1

[1] = read-out: Percentage inhibition

T2 sequence (Q13177 whole entry): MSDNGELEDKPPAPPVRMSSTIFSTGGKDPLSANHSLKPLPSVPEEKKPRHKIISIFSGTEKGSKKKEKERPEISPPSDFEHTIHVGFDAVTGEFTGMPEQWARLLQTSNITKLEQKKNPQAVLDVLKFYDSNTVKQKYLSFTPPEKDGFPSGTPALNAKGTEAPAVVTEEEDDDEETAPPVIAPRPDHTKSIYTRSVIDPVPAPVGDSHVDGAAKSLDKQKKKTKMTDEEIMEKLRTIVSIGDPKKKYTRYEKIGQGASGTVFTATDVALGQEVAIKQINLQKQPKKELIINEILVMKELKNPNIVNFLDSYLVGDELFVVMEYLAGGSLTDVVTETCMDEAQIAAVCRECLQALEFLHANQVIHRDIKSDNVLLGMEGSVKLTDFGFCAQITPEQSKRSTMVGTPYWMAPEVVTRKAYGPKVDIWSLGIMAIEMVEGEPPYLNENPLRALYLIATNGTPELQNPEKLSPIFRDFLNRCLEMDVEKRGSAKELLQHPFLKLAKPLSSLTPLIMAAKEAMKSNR
T6 sequence (P05771 whole entry): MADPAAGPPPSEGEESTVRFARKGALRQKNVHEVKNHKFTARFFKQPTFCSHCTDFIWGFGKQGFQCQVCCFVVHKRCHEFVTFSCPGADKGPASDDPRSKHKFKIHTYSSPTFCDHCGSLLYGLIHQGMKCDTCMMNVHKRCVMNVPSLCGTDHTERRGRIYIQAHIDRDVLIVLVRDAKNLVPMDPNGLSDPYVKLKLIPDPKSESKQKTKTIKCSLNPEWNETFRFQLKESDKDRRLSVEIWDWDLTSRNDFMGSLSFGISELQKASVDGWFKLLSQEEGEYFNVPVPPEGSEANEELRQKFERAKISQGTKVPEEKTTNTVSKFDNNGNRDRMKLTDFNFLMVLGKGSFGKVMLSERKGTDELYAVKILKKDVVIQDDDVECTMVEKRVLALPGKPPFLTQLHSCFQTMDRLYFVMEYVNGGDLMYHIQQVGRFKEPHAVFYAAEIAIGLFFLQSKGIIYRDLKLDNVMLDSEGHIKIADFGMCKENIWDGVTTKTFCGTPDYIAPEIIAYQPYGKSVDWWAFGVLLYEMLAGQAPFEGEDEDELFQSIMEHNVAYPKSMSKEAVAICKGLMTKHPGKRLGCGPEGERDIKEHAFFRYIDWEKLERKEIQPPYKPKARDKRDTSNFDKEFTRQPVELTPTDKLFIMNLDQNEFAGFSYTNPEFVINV
T4 sequence (P00519 whole entry): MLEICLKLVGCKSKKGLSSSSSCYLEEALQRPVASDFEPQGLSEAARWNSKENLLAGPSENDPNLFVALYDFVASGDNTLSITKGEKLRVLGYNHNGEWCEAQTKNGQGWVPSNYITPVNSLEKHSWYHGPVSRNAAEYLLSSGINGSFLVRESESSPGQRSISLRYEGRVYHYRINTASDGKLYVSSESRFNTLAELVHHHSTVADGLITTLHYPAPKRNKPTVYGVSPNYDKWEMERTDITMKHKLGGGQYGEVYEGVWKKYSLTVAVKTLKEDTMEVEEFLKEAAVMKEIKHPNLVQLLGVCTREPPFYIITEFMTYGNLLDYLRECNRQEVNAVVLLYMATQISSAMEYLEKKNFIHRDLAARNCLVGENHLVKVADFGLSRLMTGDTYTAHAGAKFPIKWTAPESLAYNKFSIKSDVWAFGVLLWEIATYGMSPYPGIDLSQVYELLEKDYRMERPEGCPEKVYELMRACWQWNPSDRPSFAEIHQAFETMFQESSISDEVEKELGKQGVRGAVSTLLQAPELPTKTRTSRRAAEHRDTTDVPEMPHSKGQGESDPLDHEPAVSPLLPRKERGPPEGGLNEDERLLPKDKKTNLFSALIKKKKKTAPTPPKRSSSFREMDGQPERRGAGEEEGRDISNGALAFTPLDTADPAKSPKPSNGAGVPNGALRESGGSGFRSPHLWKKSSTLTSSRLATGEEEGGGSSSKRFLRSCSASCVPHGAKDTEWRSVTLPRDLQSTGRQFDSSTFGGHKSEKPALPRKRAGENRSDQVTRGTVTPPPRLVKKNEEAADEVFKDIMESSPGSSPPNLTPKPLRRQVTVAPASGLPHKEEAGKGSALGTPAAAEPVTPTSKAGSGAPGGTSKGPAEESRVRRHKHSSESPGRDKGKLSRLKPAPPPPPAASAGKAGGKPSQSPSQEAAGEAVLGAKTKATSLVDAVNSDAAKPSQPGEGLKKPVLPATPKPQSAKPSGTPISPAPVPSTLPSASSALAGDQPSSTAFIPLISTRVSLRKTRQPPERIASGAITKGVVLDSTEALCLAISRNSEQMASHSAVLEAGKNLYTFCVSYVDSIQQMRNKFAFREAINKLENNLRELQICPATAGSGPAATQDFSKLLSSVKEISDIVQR

Structure (SMILES)	inhibition at 0.1 µM (PRKD2)	inhibition at 1 µM (PRKD2)	inhibition at 0.1 µM (PAK2)	inhibition at 1 µM (PAK2)	inhibition at 0.1 µM (PRAK)	inhibition at 1 µM (PRAK)	Percentage inhibition (ABL1; 0.1 µM inhibitor)	inhibition at 1 µM (ABL1; [1])	inhibition at 0.1 µM (NEK9)	inhibition at 1 µM (NEK9)	inhibition at 0.1 µM (PKCβ1)	inhibition at 1 µM (PKCβ1)	inhibition at 0.1 µM (ABL1; 0.1 µM inhibitor, read-out: Percentage inhibition)
COc1cc(-c2cc(-c3cccc(O)c3)cnc2N)cc(OC)c1OC [K02288, 3-[6-amino-5-(3,4,5-trimethoxy-phenyl)-pyridin-3-yl]-phenol]	0.6%	6.6%	-1%	-1%	0%	0%	79% and > 50%	89%	5.3%	-2%	-1%	0.7%	–
c1ccc2c(-c3cnn4cc(-c5ccc(N6CCNCC6)cc5)cnc34)ccnc2c1 [LDN-193189]	4.5%	13%	0%	0%	0.8%	0.1%	> 50%	84%	1.9%	6.6%	-2%	0.2%	62%
